The source made the active and inactive calls.
Columns and labels:
Aminopeptidase N = target: T1, Aminopeptidase N (Plasmodium falciparum FcB1/Columbia, UniProt O96935); experiment: malaria alanyl aminopeptidase activity blockers – biochemical, fluorogenic H-Leu-NHMec substrate, 1536-well (AID 1445); design: species or system Plasmodium falciparum 3D7, 3D7
T1 sequence (O96935 whole entry): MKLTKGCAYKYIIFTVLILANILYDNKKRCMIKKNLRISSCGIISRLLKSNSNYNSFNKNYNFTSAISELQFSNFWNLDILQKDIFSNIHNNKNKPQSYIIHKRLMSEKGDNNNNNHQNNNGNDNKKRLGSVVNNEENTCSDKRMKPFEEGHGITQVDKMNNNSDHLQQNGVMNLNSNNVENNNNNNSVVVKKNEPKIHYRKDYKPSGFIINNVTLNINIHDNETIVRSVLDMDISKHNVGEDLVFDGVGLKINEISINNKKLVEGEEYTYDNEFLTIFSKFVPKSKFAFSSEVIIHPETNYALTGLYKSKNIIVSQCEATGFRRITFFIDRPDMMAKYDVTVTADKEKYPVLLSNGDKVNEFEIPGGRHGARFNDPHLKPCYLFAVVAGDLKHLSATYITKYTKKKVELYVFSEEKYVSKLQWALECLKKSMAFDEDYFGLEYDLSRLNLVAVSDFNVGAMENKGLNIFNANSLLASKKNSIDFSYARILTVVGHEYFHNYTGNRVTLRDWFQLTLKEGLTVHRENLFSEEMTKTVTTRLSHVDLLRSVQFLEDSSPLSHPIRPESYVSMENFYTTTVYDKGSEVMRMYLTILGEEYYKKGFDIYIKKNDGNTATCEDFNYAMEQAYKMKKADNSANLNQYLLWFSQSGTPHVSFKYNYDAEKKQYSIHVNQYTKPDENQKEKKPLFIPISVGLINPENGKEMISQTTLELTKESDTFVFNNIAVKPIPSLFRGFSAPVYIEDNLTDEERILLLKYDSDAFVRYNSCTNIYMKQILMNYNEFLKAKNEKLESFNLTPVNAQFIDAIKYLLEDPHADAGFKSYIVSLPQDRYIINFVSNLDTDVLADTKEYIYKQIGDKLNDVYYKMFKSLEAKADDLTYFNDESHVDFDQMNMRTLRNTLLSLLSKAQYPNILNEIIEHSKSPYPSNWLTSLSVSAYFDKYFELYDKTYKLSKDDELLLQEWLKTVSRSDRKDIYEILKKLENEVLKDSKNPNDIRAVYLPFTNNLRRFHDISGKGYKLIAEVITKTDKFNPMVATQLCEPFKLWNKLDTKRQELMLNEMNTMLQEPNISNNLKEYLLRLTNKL

Cytochrome P450 2D6 = Cytochrome P450 2D6 (Homo sapiens, UniProt P10635);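 further: CYP2D6 member of a cytochrome P450 panel assay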
Sequence of Cytochrome P450 2D6 (P10635 whole entry): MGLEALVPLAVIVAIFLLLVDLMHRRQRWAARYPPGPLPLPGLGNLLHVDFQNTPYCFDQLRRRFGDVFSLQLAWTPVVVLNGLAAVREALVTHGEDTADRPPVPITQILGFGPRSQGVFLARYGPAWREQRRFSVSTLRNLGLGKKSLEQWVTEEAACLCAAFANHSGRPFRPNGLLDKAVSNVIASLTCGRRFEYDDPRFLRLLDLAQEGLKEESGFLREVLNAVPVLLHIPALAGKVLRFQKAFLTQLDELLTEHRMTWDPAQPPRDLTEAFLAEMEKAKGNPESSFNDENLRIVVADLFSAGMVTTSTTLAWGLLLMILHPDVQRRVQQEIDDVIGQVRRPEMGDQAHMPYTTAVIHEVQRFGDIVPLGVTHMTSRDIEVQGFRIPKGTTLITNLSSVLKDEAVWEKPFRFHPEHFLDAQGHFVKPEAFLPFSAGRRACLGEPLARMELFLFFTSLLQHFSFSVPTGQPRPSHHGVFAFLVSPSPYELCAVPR

[1] = target: Lysosomal acid glucosylceramidase (Homo sapiens, UniProt P04062); experiment: Dose response cell-based high throughput screening assay to identify enhancers of beta-glucosidase activity. [Related pubchem assays: 784 ]; type: functional
Sequence of Lysosomal acid glucosylceramidase (P04062 whole entry): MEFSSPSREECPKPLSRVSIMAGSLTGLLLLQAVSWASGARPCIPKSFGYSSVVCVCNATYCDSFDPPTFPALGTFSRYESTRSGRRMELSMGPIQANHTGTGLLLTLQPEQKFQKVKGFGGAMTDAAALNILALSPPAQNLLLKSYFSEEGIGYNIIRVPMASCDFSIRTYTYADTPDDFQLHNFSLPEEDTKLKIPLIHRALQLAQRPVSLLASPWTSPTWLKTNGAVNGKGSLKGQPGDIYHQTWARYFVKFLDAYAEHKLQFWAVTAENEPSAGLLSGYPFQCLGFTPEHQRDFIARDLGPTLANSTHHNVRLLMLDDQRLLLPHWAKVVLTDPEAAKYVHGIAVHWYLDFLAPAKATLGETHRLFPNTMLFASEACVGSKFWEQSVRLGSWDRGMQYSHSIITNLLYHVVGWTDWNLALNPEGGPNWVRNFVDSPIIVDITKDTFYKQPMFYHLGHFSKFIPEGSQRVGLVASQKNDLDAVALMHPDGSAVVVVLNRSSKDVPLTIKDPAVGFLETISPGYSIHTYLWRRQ

Cytochrome P450 1A2 = target: T2, Cytochrome P450 1A2 (Homo sapiens, UniProt P05177);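 further: PubChem cytochrome P450 panel assay, CYP1A2 panel member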
T2 sequence (P05177 whole entry): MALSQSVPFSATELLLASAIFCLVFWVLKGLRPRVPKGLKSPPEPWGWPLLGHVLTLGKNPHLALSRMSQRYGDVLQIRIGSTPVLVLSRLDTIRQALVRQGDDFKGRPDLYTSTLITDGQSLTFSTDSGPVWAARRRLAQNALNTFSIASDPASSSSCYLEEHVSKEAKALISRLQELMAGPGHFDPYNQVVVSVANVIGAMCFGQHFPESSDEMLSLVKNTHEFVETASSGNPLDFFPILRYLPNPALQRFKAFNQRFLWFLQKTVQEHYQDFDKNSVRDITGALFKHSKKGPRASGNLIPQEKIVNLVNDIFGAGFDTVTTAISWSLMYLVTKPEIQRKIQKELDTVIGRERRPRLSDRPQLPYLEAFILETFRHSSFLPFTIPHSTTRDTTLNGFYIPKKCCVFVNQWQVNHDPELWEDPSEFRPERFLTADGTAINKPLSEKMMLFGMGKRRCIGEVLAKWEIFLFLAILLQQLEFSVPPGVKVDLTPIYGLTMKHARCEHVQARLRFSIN

[2] = target: T3, DNA repair and recombination protein RAD54-like (Homo sapiens, UniProt Q92698); experiment: RAD54 Holliday junction migration blockers – biochemical, fluorescence, cherry-picked samples, dose series, confirmation (AID 651657); type: functional
T3 sequence (Q92698 whole entry): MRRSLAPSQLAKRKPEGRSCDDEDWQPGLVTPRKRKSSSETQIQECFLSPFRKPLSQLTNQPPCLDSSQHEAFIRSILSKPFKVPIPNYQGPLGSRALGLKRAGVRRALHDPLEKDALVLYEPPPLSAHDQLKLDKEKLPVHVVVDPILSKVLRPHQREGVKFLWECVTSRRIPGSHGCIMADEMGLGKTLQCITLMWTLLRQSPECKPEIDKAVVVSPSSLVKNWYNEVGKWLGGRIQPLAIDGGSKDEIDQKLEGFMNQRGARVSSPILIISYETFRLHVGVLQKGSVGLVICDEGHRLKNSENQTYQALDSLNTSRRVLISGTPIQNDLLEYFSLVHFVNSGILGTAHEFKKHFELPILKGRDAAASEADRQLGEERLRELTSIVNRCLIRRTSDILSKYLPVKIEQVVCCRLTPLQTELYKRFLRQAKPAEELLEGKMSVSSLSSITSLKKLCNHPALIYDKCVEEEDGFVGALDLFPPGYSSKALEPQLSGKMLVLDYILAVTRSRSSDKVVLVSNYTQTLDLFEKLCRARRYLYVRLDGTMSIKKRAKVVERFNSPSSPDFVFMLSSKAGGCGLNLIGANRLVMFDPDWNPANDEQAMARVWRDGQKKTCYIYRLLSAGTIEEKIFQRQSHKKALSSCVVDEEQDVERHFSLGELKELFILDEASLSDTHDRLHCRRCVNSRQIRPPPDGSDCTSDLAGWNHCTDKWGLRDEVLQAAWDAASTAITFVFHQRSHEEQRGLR

[3] = mRNA 3' processing disruption, beta-gal signal increase – luminescence, S. cerevisiae SKY197-pL101, dose response (AID 2525); type: functional, cell-based
[4] = target: T4, Rac GTPase-activating protein 1 (Homo sapiens, UniProt Q9H0H5); experiment: blockers of MgcRacGAP-driven Rac1 GTP hydrolysis – biochemical, ADP Hunter fluorescence, primary and confirmatory, confirmation (AID 624330); type: functional
T4 sequence (Q9H0H5 whole entry): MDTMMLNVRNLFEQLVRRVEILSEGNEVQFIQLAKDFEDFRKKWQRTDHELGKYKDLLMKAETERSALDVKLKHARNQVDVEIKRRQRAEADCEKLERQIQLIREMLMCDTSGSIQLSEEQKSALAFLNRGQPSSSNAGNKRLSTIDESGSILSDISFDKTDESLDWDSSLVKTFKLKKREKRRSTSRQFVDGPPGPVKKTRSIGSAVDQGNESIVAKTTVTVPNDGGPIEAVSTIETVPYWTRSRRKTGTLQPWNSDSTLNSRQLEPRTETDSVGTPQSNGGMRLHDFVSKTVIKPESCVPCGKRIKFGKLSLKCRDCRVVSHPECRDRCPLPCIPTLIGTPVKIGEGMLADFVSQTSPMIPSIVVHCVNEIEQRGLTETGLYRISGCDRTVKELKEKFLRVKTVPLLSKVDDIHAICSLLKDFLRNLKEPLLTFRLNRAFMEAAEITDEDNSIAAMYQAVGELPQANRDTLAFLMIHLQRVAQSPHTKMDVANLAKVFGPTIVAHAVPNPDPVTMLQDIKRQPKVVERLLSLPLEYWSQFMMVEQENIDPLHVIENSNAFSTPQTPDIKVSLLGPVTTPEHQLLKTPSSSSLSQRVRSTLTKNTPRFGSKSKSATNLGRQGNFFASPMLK

HEK293 = experiment: EBV LMP1 TES2 canonical NF-kB signalling blockers – cell-based, HEK293, luciferase, cherry-pick, dose response (AID 588343); type: functional; settings: Homo sapiens
[5] = Luminescence Cell-Based Dose Confirmation HTS to Identify Inhibitors of Polyadenylation.; type: functional

IC50 (Aminopeptidase N)	AC50 (Cytochrome P450 2D6)	EC50 [1]	AC50 (Cytochrome P450 1A2)	AC50 [2]	SMILES	EC50 [3]	IC50 [4]	AC50 (HEK293)	EC50 [5]
107 µM (active)	1.41 µM (inconclusive)	15.9 µM (not active)	31.6 µM (inconclusive)	26.5 µM (active)	CCN1CCN(CCCNC(=O)c2cc3cc4ccc(OC)cc4nc3o2)CC1				
					COc1cc(/C=C2\SC(=S)N(NC(=O)c3ccncc3)C2=O)ccc1O	8.56 µM (active)	48.1 µM (active)	222 µM (active)	7.59 µM (active)

— ChEMBL document CHEMBL1201862, “PubChem BioAssay data set” (2004)
